Publication PMC7182039 (Journal of medicinal chemistry, 2020)

Tests used:
[1] = In vitro metabolic stability in human liver microsomes; format: in vitro ADME; details: for h CLint: 37 °C, 0.4 mg/mL protein, NADPH
[2] = Kinetic solubility by nephelometry; format: physicochemical; details: kinetic solubility, 1% DMSO, 30 min; for sol6.5: pH 6.5 phosphate buffer; for sol2.0: 0.01 M HCl (approx. pH 2.0)
[3] = In vitro metabolic stability in mouse liver microsomes; format: in vitro ADME; details: for m CLint: 37 °C, 0.4 mg/mL protein, NADPH

Compound | h CLint [1] | sol6.5 [2] [µg/mL] | m CLint [3] | conversion to 2 in human liver microsomes [1] | conversion to 2 in mouse liver microsomes [3] | sol2.0 [2] [µg/mL]
CC(C)(Oc1ccc([C@H]2CC[C@]3(CC2)OOC2(O3)C3CC4CC(C3)CC2C4)cc1)C(=O)O (stereo partly drawn) [Compound 11] | <7/7 μL/(min mg) protein | 3.1 to 6.3 | <7/7 μL/(min mg) protein | – | – | –
CS(=O)(=O)NC(=O)COc1ccc([C@H]2CC[C@]3(CC2)OOC2(O3)C3CC4CC(C3)CC2C4)cc1 (stereo partly drawn) [Compound 13, cis-Adamantane-2-spiro-3′−8′-[4-[2-[methylsulfonamino]-2-oxoethoxy]phenyl]-1′,2′,4′-trioxaspiro[4.5]decane] | < 7 μL/(min mg) protein | 6.3 to 12.5 | 12 μL/(min mg) protein | – | – | –
CCOC(=O)COc1ccc([C@H]2CC[C@]3(CC2)OOC2(O3)C3CC4CC(C3)CC2C4)cc1 (stereo partly drawn) [Compound 12] | – | – | – | rapidly converted to 2 | rapidly converted to 2 | –
O=C(O)COc1c(Cl)cc([C@H]2CC[C@]3(CC2)OOC2(O3)C3CC4CC(C3)CC2C4)cc1Cl (stereo partly drawn) [Compound 8, cis-Adamantane-2-spiro-3′ −8′-[3,5-dichloro-4-(carboxymethoxy)phenyl]-1′,2′,4′-trioxaspiro[4.5]decan] | – | 3.1 to 6.3 | – | – | – | –
CS(=O)(=O)O.O=C(O)C1CN(Cc2ccc([C@H]3CC[C@]4(CC3)OOC3(O4)C4CC5CC(C4)CC3C5)cc2)C1 (stereo partly drawn) [Compound 18, cis-Adamantane-2-spiro-3′−8′-[4-((3-(carbonyi)azetidin-1-yl)-methyi)phenyi]-1′,2′,4′-trioxaspiro[4.5]decane mesyiate] | 7 μL/(min mg) protein | < 1.6 | 10 μL/(min mg) protein | – | – | 6.3 to 12.5
O=C(O)COc1ccc([C@H]2CC[C@]3(CC2)OOC2(O3)C3CC4CC2CC(C3)C4(F)F)cc1 (stereo partly drawn) [Compound 19, cis-6,6-Difluoroadamantane-2-spiro-3′−8′-[4-(carboxymethoxy)-phenyl]-1′,2′,4′ -trioxaspiro[4.5]decane] | 23 μL/(min mg) protein | 12.5 to 25 | 130 μL/(min mg) protein | – | – | –
CS(=O)(=O)O.O=C(O)COc1ccc([C@H]2CC[C@]3(CC2)OOC2(O3)C3CC4CC2CC(C3)N4)cc1 (stereo partly drawn) [Compound 24, cis-6-Azaadamantane-2-spiro-3′−8 ′-[4-(carboxymethoxy)-phenyl]-1′,2′,4′-trioxaspiro[4.5]decane mesylate] | 35 μL/(min mg) protein | < 1.6 | 27 μL/(min mg) protein | – | – | 3.1 to 6.3
O=C(O)CCCOc1ccc([C@H]2CC[C@]3(CC2)OOC2(O3)C3CC4CC(C3)CC2C4)cc1 (stereo partly drawn) [Compound 9, cis-Adamantane-2-spiro-3′−8′-[4-(carboxypropoxy)-phenyl]-1′,2′,4′-trioxaspiro[4.5]decane] | < 7 μL/(min mg) protein | – | 8 μL/(min mg) protein | – | – | –
O=C(O)c1cc([C@H]2CC[C@]3(CC2)OOC2(O3)C3CC4CC(C3)CC2C4)ccc1O (stereo partly drawn) [Compound 5, 5-(Dispiro[adamantane-2,3′ -[1,2,4]trioxolane-5′,1″-cyclohexan]-4″-yl)-2-hydroxybenzoic acid] | 108 μL/(min mg) protein | – | 20 μL/(min mg) protein | – | – | –
O=C(O)COc1ccc([C@H]2CC[C@]3(CC2)OOC2(O3)C3CC4CC2CC(C3)C4=O)cc1 (stereo partly drawn) [Compound 20, cis-6-Oxoadamantane-2-spiro-3′−8′-[4-(carboxymethoxy)-phenyl]-1′,2′,4′-trioxaspiro[4.5]decane] | – | 50 to 100 | – | – | – | –
O=C(O)COc1ccc([C@H]2CC[C@]3(CC2)OOC2(O3)C3CC4CC(C3)CC2C4)cc1C(=O)O (stereo partly drawn) [Compound 6, cis-Adamantane-2-spiro-3′−8′-[3-carboxy-4-(carboxymethoxy)-phenyl]-1′,2′,4′-trioxaspiro[4.5]decane] | < 7 μL/(min mg) protein | – | 8 μL/(min mg) protein | – | – | –
